How the values were obtained:
primary mouse HSCs = test: Fibrotic gene expression in primary mouse HSCs; type: cell-based; conditions: primary mouse HSCs (data not shown)
Method: HSCs were isolated from 10-week old male C57BL/6J mice and Wistar rats by in situ pronase, collagenase perfusion and single-step Histogenz gradient as previously reported (Hendriks et al., 1985; Knook et al., 1982). Isolated HSCs were cultured in DMEM (Mediatech) containing 20% FBS (Hyclone) on 6-well plates for 40 hours prior to end-point assays.
(§1) LX-2 cells, a generous gift from Professor Scott Friedman, Mount Sinai School of Medicine, New York, N.Y., were cultured as described previously (Xu et al., 2005). […] For luciferase assays, DNA transfections were performed using Fugene 6 (Roche) following the manufacturer's instructions. […] RT-qPCR, total RNA was purified following TRIzol extraction and treated with DNaseI (Invitrogen). cDNA synthesis was carried out with iScript RT Supermix (Biorad). Quantitative PCR was performed in technical triplicates using SYBR Green reagent (Biorad). The relative standard curve method was used for quantitation (Biorad). Expression levels were calculated by normalization to either Gapdh (mouse) or U36B4 (human) quantities.

SMAD3 = test: Immunoprecipitation/Western blot of total and phosphorylated SMAD3 in LX-2 cells; type: cell-based, human; conditions: TGFβ1 1 ng/ml +/- calcipotriol 100 nM
Method: Nuclear extracts were immunoprecipitated using a SMAD2/3 antibody prior to Western blot analysis. Asterisks denote non-specific bands.
The whole cell lysates were obtained through RIPA buffer lysis while isolation of nuclear extract was performed as previously reported (Ding et al., 2008). Total and nuclear SMAD3 were immunoprecipitated from LX-2 whole cell and nuclear extracts, respectively, using anti-SMAD2/3 antibody (Santa Cruz, sc-133098) followed by SDS-PAGE and western blot detection by anti-SMAD3 (Cell Signaling, 9523) and anti-pSMAD3 (Cell Signaling, 9520) specific antibodies.

C57BL/6J mice = test: CCl4 model of liver injury and fibrosis; type: in vivo, mouse
Method: as §1
8 week-old male C57BL/6J mice were IP injected with 0.5 ml/kg body weight CCl4 (1:50 v/v in corn oil from Sigma) or vehicle (DMSO in corn oil) three times a week for 4 weeks. […] The animals were terminated 72 hours after the final CCl4 injection and whole livers and serum were collected for histological, cytological, biochemical and molecular analyses.
5 μm sections of formalin-fixed liver were stained following standard H&E and Sirius Red methods and reviewed by a pathologist who was blinded to the experimental conditions. Fibrosis was scored using the Ishak modified histological activity index (HAI) scoring system. Fibrosis was also quantified using Image J software on 10 non-contiguous Sirius Red stained sections. All images were obtained using a high-resolution Leica DFC420 digital camera mounted on an Olympus microscope equipped with ×4/0.13, ×10/0.30, ×20/0.50 and ×40/0.75 UplanFL N plan objective lenses and processed with the Leica Application Suite. Hepatic hydroxyproline content was measured using a commercial colorimetric assay from Biovision (K555-100).

[1] = test system: NCoR, SMRT, HDAC3, CoREST, LSD1, and G9a; test: ChIP-qPCR of corepressor recruitment at COL1A1 and COL1A2 regulatory regions in LX-2 cells; type: cell-based, human; conditions: calcipotriol 100 nM and TGFβ1 1 ng/ml
Excerpt: (§2) FIGS. 12A-12B. Coactivator/Corepressor Recruitment and Histone H3 Acetylation Status at Regulatory Regions of Fibrotic Genes Co-occupied by VDR and SMAD. […] The level of occupancy is expressed relative to input chromatin in LX-2 cells treated with corresponding conditions. Data represents the mean+/−SEM of at least three independent experiments performed in triplicate. Asterisks denote statistically significant differences (Student's t test, *p<0.05). […] The level of occupancy is expressed relative to input chromatin in LX-2 cells treated with corresponding conditions.
(§3) Cells were then harvested for ChIP assay. The experimental procedure for ChIP was as previously described (Barish et al., 2010). Briefly, after fixation, nuclei from LX-2 cells were isolated, lysed and sheared with a Diagenode Bioruptor to yield DNA fragment sizes of 200-1000 base pairs followed by immunoprecipitation using antibodies listed below: normal rabbit IgG (Santa Cruz, sc-2027), VDR (Santa Cruz, sc-1008), SMAD3 (Abcam, ab28379) and histone H3 (Abcam, ab1791). For ChIP-Re-ChIP, after first ChIP, the immunoprecipitated DNA-protein complex was eluted from beads using 10 mM DTT, diluted 100-fold then re-immunoprecipitated with a second antibody, re-ChIP.

[2] = test system: CBP, p300 and acetylated histone H3; test: ChIP-qPCR of CBP, p300 and acetylated histone H3 at COL1A1 regulatory region in LX-2 cells; type: cell-based, human; conditions: co-treated with calcipotriol 100 nM and TGFβ1 1 ng/ml
Excerpt: as §2, §3

With `C=C1/C(=C\C=C2/CCC[C@]3(C)[C@@H]([C@H](C)/C=C/[C@@H](O)C4CC4)CC[C@@H]23)C[C@@H](O)C[C@@H]1O` [calcipotriol, 1α,24-(OH)2-24-cyclopropyl-D3] the fibrotic gene expression (primary mouse HSCs) was “potently repressed”, the “TGFβ1-induced phosphorylation and subsequent nuclear translocation of SMAD3” value (SMAD3) was “did not significantly affect” and the “fibrosis (Sirius red staining, hepatic hydroxyproline content, histological fibrotic scoring)” value (C57BL/6J mice; CCl4 0.5 ml/kg IP 3 times per week, 4 weeks, calcipotriol 20 μg/kg oral gavage co-treatment) was “significant reduction in fibrosis”. For the same molecule, the serum calcium concentration (C57BL/6J mice; calcipotriol 20 μg/kg oral gavage, 4 weeks) was “not significantly altered”, the “down-regulation of fibrotic marker genes Col1a1, Tgfb1 and Timp1” value (C57BL/6J mice; hepatic gene expression, RT-qPCR, CCl4/calcipotriol co-treated vs CCl4) was 50-70% and the “fibrogenic response in liver” value (C57BL/6J mice; pre-treated with calcipotriol for 5 weeks prior to CCl4/calcipotriol co-treatment) was “nearly completely abrogated”. For the same molecule, the “altered binding of corepressors to VDR/SMAD3 co-occupied regulatory regions” value [1] was “not detected” and the “TGFβ1 induced recruitment of p300 and CBP and histone H3 hyperacetylation at COL1A1 regulatory region” value [2] was “lost”.
